Results reported in US20050119288A1, “Dosing schedule for a novel anticancer agent” (Pfizer Inc, priority 2003, published 2005).

Tests used:
[1] = Body weight and tolerability, MDA-MB-453 study; assay type: in vivo, mice; conditions: PO
Experimental: Study Design: Exponentially growing MDA-MB-453 cells (DMEM/F12 with 10% FBS, and pen/strep [Gibco]) were harvested and inoculated SC (5 million cells/animal) into female athymic mice. MDA-MB-453 tumor bearing mice (˜100 mm^3 in size, N=64) were randomized in 8 groups consisting 8 animals each. Animals were treated with vehicle (PO, QD or BID) or the test compound (PO, QD or BID) as described in Table 6. The tumor measurements and body weight changes were obtained on days 1, 3, 7, 10, 14, 17, 21, 24, and 29. Tumor volume was calculated by the following formula: Tumor volume (mm^3)═(W×W)/2×L (L=length & W=width). Blood samples (˜50 μl) were isolated at 0.5, 1, 2, 4 and 8 hrs after dosing on day 29 for PK-analysis. Tumors were isolated at 0.5 hr post-dosing on day 29 for PD-analysis by ELISA.

BT-474 tumors = assay: BT-474 xenograft tumor growth in athymic mice; assay type: in vivo, human; conditions: PO; for % Growth inhibition: 22 days
Description: The in vivo anti-tumor activity of the compounds for use in the methods of the present invention can be determined by the amount of inhibition of tumor growth by a test compound relative to a control. The tumor growth inhibitory effects of various compounds can be measured according to the method of Corbett T. H., et al., “Tumor Induction Relationships in Development of Transplantable Cancers of the Colon in Mice for Chemotherapy Assays, with a Note on Carcinogen Structure”, Cancer Res., 35, 2434-2439 (1975) and Corbett T. H., et al., “A Mouse Colon-tumor Model for Experimental Therapy”, Cancer Chemother. Rep. (Part 2)”, 5, 169-186 (1975), with slight modifications. Tumors can be induced in the left flank of mice by subcutaneous (sc) injection of 1-5 million log phase cultured tumor cells suspended in 0.1 ml RPMI 1640 medium. After sufficient time has elapsed for the tumors to become palpable (˜100-150 mm^3 in size/5-6 mm in diameter) the test animals (athymic female mice) are treated with test compound (formulated at a concentration of 10 to 15 mg/ml in 5 Gelucire or 0.5% methyl cellulose) by the intravenous (iv) or oral (po) route of administration once or twice daily for 7 to 29 consecutive days. In order to determine an anti-tumor effect, the tumor is measured in millimeters with a Vernier caliper across two diameters and the tumor size (mm^3) is calculated using the formula: Tumor size (mm^3)=(W×W)/2×L (L=length and W=width), according to the methods of Geran, R. I., et al. “Protocols for Screening Chemical Agents and Natural Products Against Animal Tumors and Other Biological Systems”, Third Edition, Cancer Chemother. Rep., 3, 1-104 (1972). Results are expressed as percent inhibition, according to the formula: Inhibition Growth (%)=[100-{(% Growth of Treated/% Growth of Control)×100}]. The flank site of tumor implantation provides reproducible dose/response effects for a variety of chemotherapeutic agents, and the method of measurement (tumor diameter) is a reliable method for assessing tumor growth rates.
Exponentially growing BT-474 cells (RPMI 1640 with 10 mM HEPES, 10% FBS, and pen/strep [Gibco]) were harvested and inoculated SC (5 million cells/animal) into female athymic mice. Trochar pieces of BT-474 tumors were then implanted into the right flank of animals. BT-474 tumor bearing mice (50-320 mm^3 in size, N=40) were randomized in 7 groups consisting 5-6 animals each. Animals were treated with vehicle (PO, BID) or the test compound (PO, QD or BID) as described in Table 4. The tumor measurements and body weight changes were obtained on days 1, 6, 11, 15 and 22. Tumor volume was calculated by the following formula: Tumor volume (mm^3)═(W×W)/2×L (L=length & W=width). Blood samples (˜50 μl) were isolated at 0.5, 1, 2, 4 and 8 hrs after dosing on day 22 for PK-analysis. Tumors were isolated at 0.5 hr post-dosing on day 22 for PD-analysis by ELISA.
Statistical Analysis: ANOVA was conducted on the percentage growth data and planned comparisons were conducted between like-doses. The data were log transformed for the analysis due to the distribution of the values. The Dunnett-Tamahane procedure was used for the multiple comparison analysis.
Thus, oral anti-tumor efficacy of the test compound (QD and BID) was determined against human breast adenocarcinoma model BT-474 which overexpresses erbB2. The test compound administration (QD or BID) was efficacious and caused growth inhibition of BT-474 xenografts (FIGS. 5a and 5b). […] Due to a wide variation in the initial tumor volume, % growth of individual tumor was calculated and an average of each group was used to determine relative anti-tumor efficacy.

In the case of `COCC(=O)NC/C=C/c1ccc2ncnc(Nc3ccc(Oc4ccc(C)nc4)c(C)c3)c2c1` [Test Compound, E-2-Methoxy-N-(3-{4-(3-methyl-4-(6-methyl-pyridin-3-yloxy)-phenylamino)-quinazolin-6-yl}-allyl)-acetamide], the “average body weight Day 1” value ([1]; BID 25 mg/kg) is reported as 22 g, the “average body weight Day 29” value ([1]; BID 25 mg/kg) is reported as 23 g and the “average body weight Day 1” value ([1]; BID 50 mg/kg) is reported as 23 g. The “average body weight Day 29” value ([1]; BID 50 mg/kg) was 24 g, the “average body weight Day 1” value ([1]; BID 100 mg/kg) was 23 g and the “average body weight Day 29” value ([1]; BID 100 mg/kg) was 25 g. For the same compound, the “average body weight Day 1” value ([1]; QD 50 mg/kg) was 23 g, the “average body weight Day 29” value ([1]; QD 50 mg/kg) was 25 g and the “average body weight Day 1” value ([1]; QD 100 mg/kg) was 23 g. The “average body weight Day 29” value ([1]; QD 100 mg/kg) was 25 g, the “average body weight Day 1” value ([1]; QD 200 mg/kg) was 22 g and the “average body weight Day 29” value ([1]; QD 200 mg/kg) was 24 g. For the same compound, the “tolerability, body weight loss or animal mortality” value ([1]; QD or BID, 29 days) was “well tolerated and there was no body weight loss or animal mortality”, the “Tumor volume Day 1 (Mean ± SE)” value (BT-474 tumors; BID 50 mg/kg) was 155 ± 42 mm^3 and the “% Growth inhibition” value (BT-474 tumors; BID, 15 mg/kg (Total Daily Dose = 30 mg/kg)) was 54%. The “Tumor volume Day 1 (Mean ± SE)” value (BT-474 tumors; BID, 15 mg/kg) was 114 ± 47 mm^3, the “Tumor volume Day 22 (Mean ± SE)” value (BT-474 tumors; BID, 15 mg/kg) was 520 ± 254 mm^3 and the “% Growth inhibition” value (BT-474 tumors; BID, 30 mg/kg (Total Daily Dose = 60 mg/kg)) was 68%. The “Tumor volume Day 1 (Mean ± SE)” value (BT-474 tumors; BID, 30 mg/kg) was 161 ± 44 mm^3, the “Tumor volume Day 22 (Mean ± SE)” value (BT-474 tumors; BID, 30 mg/kg) was 530 ± 240 mm^3 and the “% Growth inhibition” value (BT-474 tumors; BID, 50 mg/kg (Total Daily Dose = 100 mg/kg)) was 68%. For the same compound, the “Tumor volume Day 22 (Mean ± SE)” value (BT-474 tumors; BID, 50 mg/kg) was 413 ± 98 mm^3, the “Tumor volume Day 1 (Mean ± SE)” value (BT-474 tumors; QD 50 mg/kg) was 153 ± 40 mm^3 and the “% Growth inhibition” value (BT-474 tumors; QD, 15 mg/kg) was 22%. For the same compound, the “Tumor volume Day 1 (Mean ± SE)” value (BT-474 tumors; QD, 15 mg/kg) was 78 ± 18 mm^3, the “Tumor volume Day 22 (Mean ± SE)” value (BT-474 tumors; QD, 15 mg/kg) was 376 ± 79 mm^3 and the “% Growth inhibition” value (BT-474 tumors; QD, 30 mg/kg) was 33%. For the same compound, the “Tumor volume Day 1 (Mean ± SE)” value (BT-474 tumors; QD, 30 mg/kg) was 139 ± 31 mm^3, the “Tumor volume Day 22 (Mean ± SE)” value (BT-474 tumors; QD, 30 mg/kg) was 635 ± 189 mm^3 and the “% Growth inhibition” value (BT-474 tumors; QD, 50 mg/kg) was 35%. For the same compound, the “Tumor volume Day 22 (Mean ± SE)” value (BT-474 tumors; QD, 50 mg/kg) was 608 ± 136 mm^3.
